Experiments:
Assay in all cases: relative viability (nuclei count vs DMSO), 5 days (fraction); higher = more cells survive
Erlotinib + Lapatinib = compound: C#Cc1cccc(Nc2ncnc3cc(OCCOC)c(OCCOC)cc23)c1 [Erlotinib] + CS(=O)(=O)CCNCc1ccc(-c2ccc3ncnc(Nc4ccc(OCc5cccc(F)c5)c(Cl)c4)c3c2)o1 [Lapatinib] (partner 2 µM)
Method in brief: (§1)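 Lung cancer cell lines were seeded in 1536-well plates and dosed by pin tool the next day, with either a single drug or a fixed anchor-drug dose combined with five library-drug doses (not always all listed) spaced in √10 steps. Five days later, one step fixed the cells and stained their nuclei (final 0.05% Triton X-100, 1% formaldehyde, 1 ug/ml Hoechst), and nuclei were counted on 4× images. Relative viability is the nuclei count in treated wells divided by the count in vehicle wells, and each value is the median of duplicate plates.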

AT9283 + Luminespib = compound: O=C(Nc1c[nH]nc1-c1nc2ccc(CN3CCOCC3)cc2[nH]1)NC1CC1 [AT9283] + CCNC(=O)c1noc(-c2cc(C(C)C)c(O)cc2O)c1-c1ccc(CN2CCOCC2)cc1 [Luminespib] (partner 0.01 µM)
Method in brief: as §1

Erlotinib + Linsitinib = compound: C#Cc1cccc(Nc2ncnc3cc(OCCOC)c(OCCOC)cc23)c1 [Erlotinib] + C[C@]1(O)C[C@@H](c2nc(-c3ccc4ccc(-c5ccccc5)nc4c3)c3c(N)nccn32)C1 [Linsitinib] (partner 1 µM)
Method in brief: as §1

AT9283 + Bortezomib = compound: O=C(Nc1c[nH]nc1-c1nc2ccc(CN3CCOCC3)cc2[nH]1)NC1CC1 [AT9283] + CC(C)C[C@H](NC(=O)[C@H](Cc1ccccc1)NC(=O)c1cnccn1)B(O)O [Bortezomib] (partner 0.002 µM)
Method in brief: as §1

Erlotinib + Pictilisib = compound: C#Cc1cccc(Nc2ncnc3cc(OCCOC)c(OCCOC)cc23)c1 [Erlotinib] + CS(=O)(=O)N1CCN(Cc2cc3nc(-c4cccc5[nH]ncc45)nc(N4CCOCC4)c3s2)CC1 [Pictilisib] (partner 1 µM)
Method in brief: as §1

| Cell Line | relative viability (Erlotinib + Lapatinib; first compound 0.02 µM) | relative viability (Erlotinib + Lapatinib; first compound 0.2 µM) | relative viability (Erlotinib + Lapatinib; first compound 0.6325 µM) | relative viability (Erlotinib + Lapatinib; first compound 2 µM) | relative viability (AT9283 + Luminespib; first compound 0.003 µM) | relative viability (AT9283 + Luminespib; first compound 0.03 µM) | relative viability (AT9283 + Luminespib; first compound 0.09487 µM) | relative viability (AT9283 + Luminespib; first compound 0.3 µM) | relative viability (Erlotinib + Linsitinib; first compound 0.02 µM) | relative viability (Erlotinib + Linsitinib; first compound 0.2 µM) | relative viability (Erlotinib + Linsitinib; first compound 0.6325 µM) | relative viability (AT9283 + Bortezomib; first compound 0.003 µM) | relative viability (AT9283 + Bortezomib; first compound 0.03 µM) | relative viability (AT9283 + Bortezomib; first compound 0.09487 µM) | relative viability (AT9283 + Bortezomib; first compound 0.3 µM) | relative viability (Erlotinib + Pictilisib; first compound 0.02 µM) | relative viability (Erlotinib + Pictilisib; first compound 0.6325 µM) | relative viability (Erlotinib + Pictilisib; first compound 2 µM) | relative viability (Erlotinib + Linsitinib; first compound 2 µM) | relative viability (Erlotinib + Pictilisib; first compound 0.2 µM) |
| --- | --- | --- | --- | --- | --- | --- | --- | --- | --- | --- | --- | --- | --- | --- | --- | --- | --- | --- | --- | --- |
| HCC-15 | 0.939 | 0.852 | 0.93 | 0.785 | 0.302 | 0.234 | 0.133 | 0.115 | 0.927 | 0.922 | 1 | 1.05 | 0.773 | 0.696 | 0.166 | 0.758 | 0.735 | 0.659 | – | – |
| HCC-44 | – | 1.09 | 1.03 | 0.928 | 1.04 | 1.19 | 0.426 | 0.319 | 0.663 | 0.664 | 0.723 | 0.814 | 0.833 | 0.548 | 0.399 | 0.662 | 0.752 | 0.523 | 0.61 | 0.696 |
| HCC-827 | 0.239 | 0.163 | 0.201 | 0.171 | 0.608 | 0.539 | 0.328 | 0.185 | 0.281 | 0.188 | 0.173 | 1.03 | 0.678 | 0.747 | 0.568 | 0.374 | 0.273 | 0.329 | 0.166 | 0.241 |
| HOP-62 | 1.08 | 1.09 | 0.94 | 1.04 | 0.916 | 0.783 | 0.279 | 0.292 | 1.14 | 0.959 | 1.01 | 0.593 | 0.651 | 0.68 | 0.158 | 1.08 | 0.788 | 0.625 | 0.912 | 0.725 |
| LC-2-ad | 1.03 | 0.896 | 1.05 | 0.861 | 0.918 | 0.594 | 0.357 | 0.263 | 0.889 | 0.823 | 0.76 | 1.08 | 0.509 | 0.233 | 0.108 | 0.557 | 0.429 | 0.303 | 0.611 | 0.427 |
| LCLC-97TM1 | 1.36 | – | 0.929 | 0.846 | 0.662 | 0.634 | 0.137 | 0.157 | 0.212 | – | 0.196 | 0.49 | 0.09 | 0.139 | 0.0748 | 0.171 | 0.226 | 0.211 | 0.196 | – |
| LOU-NH91 | 0.735 | 0.723 | 0.786 | 0.734 | 0.321 | 0.353 | 0.358 | 0.32 | 0.592 | 0.544 | 0.487 | 0.436 | 0.447 | 0.438 | 0.389 | 0.471 | 0.465 | 0.475 | – | 0.505 |
| LU99A | 1.1 | 0.999 | 1.05 | 0.768 | 0.24 | 0.301 | 0.225 | 0.221 | 0.616 | 0.497 | 0.457 | 1.04 | 0.463 | 0.162 | 0.229 | 0.302 | 0.347 | 0.281 | 0.446 | 0.31 |
| LXF-289 | 0.89 | 0.953 | 0.899 | 0.889 | 0.731 | 0.742 | 0.326 | 0.144 | 0.966 | 0.921 | 0.934 | 0.972 | 0.992 | 0.184 | 0.131 | 0.775 | 0.798 | 0.704 | 0.874 | – |
| NCI-H23 | 1.29 | 0.993 | 1.27 | 0.977 | 0.216 | 0.234 | 0.204 | 0.167 | 0.643 | 0.506 | 0.752 | 0.852 | 1.01 | 0.557 | 0.236 | 0.56 | 0.61 | 0.464 | 0.604 | 0.517 |
| NCI-H322M | 0.551 | 0.604 | 0.555 | 0.541 | 0.864 | 0.541 | 0.405 | 0.41 | 0.8 | 0.727 | 0.512 | 1.25 | 1.34 | 0.861 | 0.407 | 0.456 | 0.347 | 0.365 | 0.337 | 0.499 |
| NCI-H460 | 0.918 | 1.1 | 0.999 | 0.959 | 0.0366 | 0.041 | 0.0309 | 0.0299 | 0.804 | 0.647 | – | 0.922 | 0.905 | 0.257 | 0.032 | 0.351 | 0.412 | 0.353 | 0.712 | 0.335 |
| NCI-H520 | 0.825 | 0.759 | 0.913 | – | 0.247 | 0.23 | 0.204 | 0.254 | 0.98 | 0.915 | 1.03 | 0.574 | 0.241 | 0.182 | 0.168 | 0.262 | 0.335 | 0.298 | 0.965 | 0.279 |
| NCI-H596 | – | 1 | 0.998 | 1.01 | 1.04 | 1.08 | 0.819 | 0.725 | 1.03 | 0.939 | 1.02 | 0.999 | 1.14 | 0.947 | 0.772 | 0.383 | 0.383 | 0.351 | 0.789 | 0.478 |
| NCI-H647 | 1.24 | 1.11 | 1.09 | 0.942 | 0.152 | 0.201 | 0.169 | 0.183 | 1.2 | 1.15 | 1.19 | 0.822 | 0.145 | 0.13 | 0.0938 | 0.445 | 0.499 | 0.46 | 0.971 | 0.359 |
| NCI-H650 | 0.754 | 1.08 | 1.14 | 0.744 | 0.771 | 0.701 | 0.242 | 0.173 | 0.817 | – | 1.06 | 0.652 | 0.775 | 0.561 | 0.14 | 0.963 | 0.904 | 0.936 | 0.843 | 0.942 |
